# From paper PMC4941640 (Cancer cell, 2015)
# Read-outs that look alike come from different tables or passages of the source.
# Legend:
# A549 cells [1] = assay: p62 modulation by immunofluorescence; format: cell-based
# HCT116 or A549 tumors = details: single administration, nude mice bearing HCT116 or A549 tumors
# [2] = test system: HEK293T cells stably expressing TCRα-GFP; assay: cells; details: Homo sapiens, HEK-293T, read-out: EC50, accumulation of TCRα-GFP
# AMO-1 = assay: cells; details: Homo sapiens, AMO1, read-out: IC50 in vitro, AMO-1
# DNA-PK [3] = molecular target: T1, DNA-PK (Homo sapiens, UniProt P78527); details: A549 cells, 6 hr, nuclear phospho-H2AX
# HCT 116 T688A xenografts = details: 90 mg/kg
# 350 cancer cell lines = assay: cells; details: 72 h
# [4] = all dosing schedules tested, tumor-bearing mice, po
# [5] = test system: HEK293 cells expressing GFPu; assay: cells; details: Homo sapiens, HEK293, read-out: EC50, accumulation of GFPu
# HCT116 xenograft tumors = details: 100 mg/kg single oral dose, 6 hr, nude mice
# A549 cells [6] = assay: cells; details: Homo sapiens, A549, read-out: EC50, induction of CHOP protein
# PIK3C3 = PIK3C3 vs p97, dose titration
# DNA-PK [7] = molecular target: T1, DNA-PK; details: DNA-PK vs p97, dose titration
# mTOR = mTOR vs p97, dose titration
# AMO-1 xenograft = details: after 2 cycles of treatment, qd4/3off
structure (smiles),measurement,setting,value
CC(C)n1nc(-c2ccc3oc(N)nc3c2)c2c(N)ncnc21 [INK-128],effect on p62 levels,A549 cells [1],decrease in p62 levels
CO/C1=C\C(C)=C\[C@@H](C)[C@@H](O)[C@@H](C)C/C(C)=C/C=C/[C@H](OC)[C@@H]([C@@H](C)[C@@H](O)[C@H](C)[C@@]2(O)C[C@@H](O)[C@H](C)[C@@H](C(C)C)O2)OC1=O [bafilomycin A1],effect on p62 levels,A549 cells [1],accumulation of p62 in peri-nuclear foci
"Cc1cc2c(C(N)=O)cccc2n1-c1nc2c(c(NCc3ccccc3)n1)COCC2 [CB-5083, 1-[4-(benzylamino)-5H,7H,8H-pyrano[4,3-d]pyrimidin-2-yl]-2-methyl-1H-indole-4-carboxamide]",accumulation of poly-ubiquitin or CHOP in tumor tissue,HCT116 or A549 tumors,strong and sustained induction of polyubiquitin
same,EC50,[2],730 nM
same,IC50,AMO-1,81 nM
same,inhibition of DNA-PK in cell-based assay,DNA-PK [3],not to inhibit DNA-PK at concentrations that caused cell death
same,tumor growth of T688A mutant model,HCT 116 T688A xenografts,not inhibited
same,EC50,"350 cancer cell lines; read-out: EC50 of cell viability, lower end of range in panel",≥ 81 nM
same,EC50,"350 cancer cell lines; read-out: EC50 of cell viability, upper end of range in panel",≤ 2100 nM
same,weight loss,[4],< 10%
same,tumor growth inhibition (TGI),"HCT116 xenograft; 50 mg/kg po, qd",62%
same,tumor growth inhibition (TGI),"HCT116 xenograft; 100 mg/kg po, qd4/3off",78%
same,effect on p62 levels,A549 cells [1],rapidly cleared from cells
same,EC50,[5],1050 nM
same,decrease of p62 protein levels in tumor,HCT116 xenograft tumors,60%
same,EC50,A549 cells [6],1190 nM
same,fold less affinity compared to p97,PIK3C3,158 fold
same,fold less affinity compared to p97,DNA-PK [7],29.6 fold
same,fold less affinity compared to p97,mTOR,128 fold
same,complete regressions of tumors (animals),AMO-1 xenograft,6/12
Cc1cc(OCc2nnc(SC3CCCC3)n2-c2cccnc2)ccc1-c1ccc(S(C)(=O)=O)cc1 [NMS-873],effect on p62 levels,A549 cells [1],decreases in p62 levels
CC(C)C[C@H](NC(=O)[C@H](Cc1ccccc1)NC(=O)c1cnccn1)B(O)O [bortezomib],effect on p62 levels,A549 cells [1],decreases in p62 levels
